For orientation: IC50 means the point on the concentration scale where inhibition reaches its midpoint.

Test [1] relates to Namalwa cell line (lymphoma). The test is described as follows: Cytotoxic activity: inhibition of cell proliferation, residual ATP by luminescence (ATPLite). The format is cell-based. Conditions: Homo sapiens, 72 hours of incubation. On the procedure:
(§1) Cytotoxic activity of the compounds prepared according to the invention was evaluated by measuring inhibition of cell proliferation of tumoral cell lines of human origin, such as the A549 cell line (lung) and the Namalwa cell line (lymphoma). This activity is expressed by IC50, the concentration of the tested product capable of inhibiting cell proliferation by 50%. The method used is a measurement of residual ATP by luminescence after 72 hours of incubation by using the “ATPLite” kit marketed by Perkin Elmer.
Background: ATP-based viability assays read luminescence as a measure of living cells.

In another test the test system is A549 cell line (lung). The test is described as above. The format is cell-based. The settings on record: Homo sapiens, 72 hours of incubation. On the procedure:
as §1

Consider `C[C@@H]1CC[C@H]2C(CS(=O)(=O)CC3=C(C(F)(F)F)O[C@@H]4O[C@@]5(C)CCC6[C@H](C)CC[C@@H]3[C@]64OO5)=C(C(F)(F)F)O[C@@H]3OC4(C)CCC1[C@]32OO4` (stereo partly shown) [Compound 3], for which the IC50 in test [1] was 2300 nM; in the test with A549 cell line (lung), 1200 nM.
Consider `C[C@@H]1CC[C@H]2C(COC(=O)c3cccc(C(=O)OCC4=C(C(F)(F)F)O[C@@H]5O[C@@]6(C)CC[C@H]7[C@H](C)CC[C@@H]4[C@@]57OO6)n3)=C(C(F)(F)F)O[C@@H]3O[C@@]4(C)CC[C@@H]1[C@]32OO4` [Compound 25], for which the IC50 is 62 nM in test [1] and 140 nM in the test on A549 cell line (lung).
For the compound `C[C@@H]1CC[C@H]2C(COCc3cnnn3CC3=C(C(F)(F)F)O[C@@H]4O[C@@]5(C)CC[C@@]6(C)[C@H](C)CC[C@@H]3[C@@]46OO5)=C(C(F)(F)F)O[C@@H]3O[C@@]4(C)CC[C@@H]1[C@]32OO4` [Compound 32], the IC50 in test [1] was found to be 130 nM; in the test with A549 cell line (lung), 270 nM.
Consider `C[C@@H]1CC[C@H]2C(COC(=O)c3cccc(C(=O)OCC4=C(C(F)(F)F)O[C@@H]5O[C@@]6(C)CC[C@H]7[C@H](C)CC[C@@H]4[C@@]57OO6)c3)=C(C(F)(F)F)O[C@@H]3O[C@@]4(C)CC[C@@H]1[C@]32OO4` [Compound 26], for which the IC50 in test [1] was found to be 54 nM; with A549 cell line (lung), 71 nM.
With `C[C@@H]1CC[C@H]2C(COCc3cccc(COCC4=C(C(F)(F)F)O[C@@H]5O[C@@]6(C)CC[C@H]7[C@H](C)CC[C@@H]4[C@@]57OO6)n3)=C(C(F)(F)F)O[C@@H]3O[C@@]4(C)CC[C@@H]1[C@]32OO4` [Compound 37], the IC50 is 30 nM in test [1] and 74 nM in the test on A549 cell line (lung).
With `C[C@@H]1CC[C@H]2C(CSCC3=C(C(F)(F)F)O[C@@H]4O[C@@]5(C)CCC6[C@H](C)CC[C@@H]3[C@]64OO5)=C(C(F)(F)F)O[C@@H]3OC4(C)CCC1[C@]32OO4` (stereo partly shown) [Compound 1], the IC50 in test [1] came out at 290 nM; with A549 cell line (lung), 200 nM.
Consider `C[C@@H]1CC[C@H]2C(C[S+]([O-])CC3=C(C(F)(F)F)O[C@@H]4O[C@@]5(C)CCC6[C@H](C)CC[C@@H]3[C@]64OO5)=C(C(F)(F)F)O[C@@H]3OC4(C)CCC1[C@]32OO4` (stereo partly shown) [Compound 2], for which the half-maximal inhibitory concentration (IC50) in test [1] was 1000 nM; in the test with A549 cell line (lung) it was 850 nM.
`C[C@@H]1CC[C@H]2C(CNC(=O)c3cccc(C(=O)NCC4=C(C(F)(F)F)O[C@@H]5O[C@@]6(C)CC[C@H]7[C@H](C)CC[C@@H]4[C@@]57OO6)n3)=C(C(F)(F)F)O[C@@H]3O[C@@]4(C)CC[C@@H]1[C@]32OO4` [Compound 30]: the half-maximal inhibitory concentration (IC50) was 72 nM in test [1] and 170 nM in the test on A549 cell line (lung).
For `C[C@@H]1CC[C@H]2C(COCCSSCCOCC3=C(C(F)(F)F)O[C@@H]4O[C@@]5(C)CCC6[C@H](C)CC[C@@H]3[C@]64OO5)=C(C(F)(F)F)O[C@@H]3OC4(C)CCC1[C@]32OO4` (stereo partly shown) [Compound 5] the same measures were 50 nM and 90 nM.
For `C[C@@H]1CC[C@H]2C(CSCCCCSCC3=C(C(F)(F)F)O[C@@H]4O[C@@]5(C)CCC6[C@H](C)CC[C@@H]3[C@]64OO5)=C(C(F)(F)F)O[C@@H]3OC4(C)CCC1[C@]32OO4` (stereo partly shown) [Compound 8], the IC50 was 64 nM in test [1] and 270 nM with A549 cell line (lung).
Regarding `C[C@@H]1CC[C@H]2C(COC(=O)c3ccc(C(=O)OCC4=C(C(F)(F)F)O[C@@H]5O[C@@]6(C)CC[C@H]7[C@H](C)CC[C@@H]4[C@@]57OO6)s3)=C(C(F)(F)F)O[C@@H]3O[C@@]4(C)CC[C@@H]1[C@]32OO4` [Compound 27], the IC50 in test [1] came out at 130 nM; with A549 cell line (lung), 210 nM.
Take `C[C@@H]1CC[C@H]2C(CN(C)CCN(C)CC3=C(C(F)(F)F)O[C@@H]4O[C@@]5(C)CCC6[C@H](C)CC[C@@H]3[C@]64OO5)=C(C(F)(F)F)O[C@@H]3OC4(C)CCC1[C@]32OO4` (stereo partly shown) [Compound 11]: the 50% inhibitory concentration (IC50) in test [1] was 790 nM; in the test on A549 cell line (lung), 1100 nM.
For `C[C@@H]1CC[C@H]2C(CSCCCSCC3=C(C(F)(F)F)O[C@@H]4O[C@@]5(C)CCC6[C@H](C)CC[C@@H]3[C@]64OO5)=C(C(F)(F)F)O[C@@H]3OC4(C)CCC1[C@]32OO4` (stereo partly shown) [Compound 7] the same measures were 100 nM and 150 nM.
On to `C[C@@H]1CC[C@H]2C(COCc3cn(CC4=C(C(F)(F)F)O[C@@H]5O[C@]6(C)CC[C@H]7[C@H](C)CC[C@@H]4[C@@]57OO6)nn3)=C(C(F)(F)F)O[C@@H]3O[C@@]4(C)CC[C@@H]1[C@]32OO4` [Compound 33], for which the IC50 in test [1] worked out at 30 nM; with A549 cell line (lung), 110 nM.
`C[C@@H]1CC[C@H]2C(CNC(=O)c3ccc(C(=O)NCC4=C(C(F)(F)F)O[C@@H]5O[C@@]6(C)CC[C@H]7[C@H](C)CC[C@@H]4[C@@]57OO6)s3)=C(C(F)(F)F)O[C@@H]3O[C@@]4(C)CC[C@@H]1[C@]32OO4` [Compound 31]: the IC50 was found to be 88 nM in test [1] and 220 nM in the test with A549 cell line (lung).
Take `C[C@@H]1CC[C@H]2C(CN(C)CCCN(C)CC3=C(C(F)(F)F)O[C@@H]4O[C@@]5(C)CCC6[C@H](C)CC[C@@H]3[C@]64OO5)=C(C(F)(F)F)O[C@@H]3OC4(C)CCC1[C@]32OO4` (stereo partly shown) [Compound 12]: the IC50 was found to be 390 nM in test [1] and 690 nM with A549 cell line (lung).
As for `C[C@@H]1CC[C@H]2C(CSSCC3=C(C(F)(F)F)O[C@@H]4O[C@@]5(C)CCC6[C@H](C)CC[C@@H]3[C@]64OO5)=C(C(F)(F)F)O[C@@H]3OC4(C)CCC1[C@]32OO4` (stereo partly shown) [Compound 4], the 50% inhibitory concentration (IC50) amounted to 64 nM in test [1] and 84 nM in the test on A549 cell line (lung).
`C[C@@H]1CC[C@H]2C(CSCCSCC3=C(C(F)(F)F)O[C@@H]4O[C@@]5(C)CCC6[C@H](C)CC[C@@H]3[C@]64OO5)=C(C(F)(F)F)O[C@@H]3OC4(C)CCC1[C@]32OO4` (stereo partly shown) [Compound 6]: the IC50 came to 27 nM in test [1] and 63 nM in the test on A549 cell line (lung).
With `C[C@@H]1CC[C@H]2C(COCC#CC(O)C3=C(C(F)(F)F)O[C@@H]4O[C@@]5(C)CC[C@H]6[C@H](C)CC[C@@H]3[C@@]46OO5)=C(C(F)(F)F)O[C@@H]3O[C@@]4(C)CC[C@@H]1[C@]32OO4` (stereo partly shown) [Compound 39], the IC50 is 160 nM in test [1] and 240 nM with A549 cell line (lung).
In the case of `C[C@@H]1CC[C@H]2C(COCCSCC3=C(C(F)(F)F)O[C@@H]4O[C@@]5(C)CCC6[C@H](C)CC[C@@H]3[C@]64OO5)=C(C(F)(F)F)O[C@@H]3OC4(C)CCC1[C@]32OO4` (stereo partly shown) [Compound 9], the figures for the IC50 (in test [1]; with A549 cell line (lung)) were 24 nM and 31 nM, respectively.

For the origin of these results see patent publication US8236850B2, “Dimeric derivatives of artemisinin and application in anticancer therapy” (Pierre Fabre Medicament, priority 2007, dated 2012).
